In patent US9493453B2, “Piperazinyl pyrimidine derivatives, preparation method and use thereof” (INSTITUTE OF PHARMACOLOGY AND TOXICOLOGY ACADEMY OF …, priority 2012, dated 2016):
Where two headings read alike, the source gives them in different places.

Legend:
CCR4 receptor = target: T1, CCR4 receptor (Homo sapiens, UniProt P51679); assay: Inhibition of MDC/TARC/C27 mediated chemotactic response of CCR4-transfected HEK293 cells (Boyden chamber); type: cell-based; settings: chemotactic inhibition rate, compound 1 μM, HEK293 cells transfected with pCDI-CCR4, 5 hours
T1 construct: cDNA fragments of receptor open reading frame were respectively inserted into pcDI; expressed in transfected cells; host or cells: HEK293 cells, transiently transfected by electroporation with pCDI-CCR4
T1 sequence (P51679 1-360): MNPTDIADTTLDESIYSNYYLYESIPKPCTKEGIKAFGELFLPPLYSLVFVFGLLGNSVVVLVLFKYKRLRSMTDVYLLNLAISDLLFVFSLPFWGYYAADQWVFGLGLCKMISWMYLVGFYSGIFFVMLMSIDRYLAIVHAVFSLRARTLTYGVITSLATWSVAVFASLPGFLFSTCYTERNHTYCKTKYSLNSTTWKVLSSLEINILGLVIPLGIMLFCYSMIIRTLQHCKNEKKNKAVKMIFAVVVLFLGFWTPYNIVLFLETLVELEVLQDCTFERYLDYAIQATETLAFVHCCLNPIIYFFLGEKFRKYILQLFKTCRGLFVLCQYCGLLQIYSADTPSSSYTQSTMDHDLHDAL
Text: Whether or not compounds 1-14 of the present invention can inhibit MDC (Peprotech) mediated chemotactic response of HEK293 cells was studied by using Boyden chamber (Neuro Probe, Inc.).
1. Construction of Receptor Expression Plasmid:
cDNA fragments including human chemokine receptor open reading frame were obtained by the following method: CCR4 receptor was cloned from a cDNA library of K562 cells through polymerase chain reaction (PCR). Primers were designed according to the sequence of Gen-Bank™ accession: CCR4 (NM_005508.2). cDNA fragments of receptor open reading frame were respectively inserted into pcDI (vector transformed in the chamber: eukaryotic expression vector obtained by replacing a BglII KpnI fragment of pcDNA3 (Invitrogen Corporation) plasmid with a BglII KpnI fragment of pCI (Promega Corporation) plasmid) expression vector so as to make them effectively express in HEK293 cells.
HEK293 cells were cultured in RPMI 1640 (Life Technologies, Inc.) containing 10% heat-inactivated fetal bovine serum, 100 U/mL penicillin, 100 μg/mL streptomycin. Each 4×10^6 HEK293 cells/400 μL were transiently transfected through electroporation with 15 μg chemokine receptor expression plasmids, under the condition of 120 V for 20 ms, the instrument used being electric pulse generator (Electro Square porator ECM 830, BTX, San Diego, Calif.). After 36-48 hr, chemotactic assay was carried out.
3. The Inhibitory Effect on MDC/TARC/C27 Mediated Chemotactic Response of HEK293 Cells
Chemokines MDC/TARC/C27 were diluted to 10 ng/mL with RPMI1640 (Life Technologies, Inc.), 0.1% BSA (Sigma), and added to lower holes in a 48-hole chemotactic chamber, 27.5 μL each hole. Eukaryotic expression plasmids pCDI-CCR4 were electrically shifted to HEK293 cells, and cultured normally for 36 hr. The cells were digested, re-suspended with RPMI1640, 10% FBS (Life Technologies, Inc.), and subjected to rotary incubation at 37° C. for 6.5 hours. The cells were washed twice with RPMI1640, and suspended in RPMI1640, 0.1% BSA, with a final concentration of 1×10^6/mL. The cells and the candidate compound dissolved in DMSO (Sigma) were subjected to rotary incubation at room temperature for half an hour, the final concentration of the candidate compound being 1 μM, and the final concentration of DMSO being 0.1%, and then added to upper holes in the chemotactic chamber, 55 μL each hole. The two layers were spaced by a polycarbon membrane with pore size of […] (Neuro Probe, Inc.). The chemotactic reaction was carried out in 5% CO2 at 37° C. for 5 hours. There were three groups of control in the experiment, wherein the first group was positive control, in which the transfected cells were directly added to upper holes without incubated with the candidate compound, while chemokines MDC/TARC/C27 were added to lower holes. The second group was negative control, in which the transfected cells were directly added to upper holes without incubated with the candidate compound, while RPMI1640, 0.1% BSA were added to lower holes. The third group was solvent DMSO control of the candidate compound, in which the transfected cells and DMSO were incubated at room temperature, the final concentration of DMSO being 0.1%, while chemokines MDC/TARC/C27 were added to lower holes. After completion of the chemotactic reaction, the membrane was removed, fixed and stained, and, at 400× high magnification, five horizons were randomly selected to count the cells, which were then summed. The ratio of the sum of the numbers of cells in five horizons at high magnification in each experimental group to the sum of the numbers of cells in five horizons at high magnification in the negative control group is obtained as Chemotactic Index (CI). Chemotactic inhibition rate was calculated as follows: […]

mice rhinitis model = assay: Mice rhinitis model experiment (OVA-sensitized BALB/c mice); type: in vivo; settings: Example 8 compound 1 μg/Kg, budesonide 1.28 mg/Kg
Experimental: Mice Rhinitis Model Experiment
Female BALB/c mice (6-8 weeks) were sensitized with chicken ovalbumin (OVA, Sigma-Aldrich, St Louis, Mo., USA). The compound of the present invention (for example, the compound of Example 8) was administered to nasal mucosa, at a dose 1 μg/Kg. Glucocorticoid hormonal drug budesonide, a first-line clinical drug, was used as positive control, at a dose 1.28 mg/Kg. Meanwhile, there were provided a normal group wherein the mice were not sensitized and not administered, and an OVA group wherein the mice were sensitized and not administered. The following five indicators were detected: the number of sneezing, the number of nasal scratching within 10 min after administration; IL-4 level in bronchoalveolar lavage fluid; serum IgE level; lung tissue inflammation score. Lung tissue inflammation score was rated according to a single blind method: inflammation was divided into four levels from mild to severe, marked as 0-3 scores: 0 representing no detected inflammation; 1 representing occasional inflammatory cells being visible; 2 representing bronchus or blood vessel being surrounded by eosinophils, but less than five cell layers; 3 representing bronchus or blood vessel being surrounded by a large number of eosinophils, with 5 or more cell layers.

[1] = chemokine C27 10 ng/mL, read-out: C27 inhibition rate
[2] = chemokine MDC 10 ng/mL, read-out: MDC inhibition rate
[3] = chemokine TARC 10 ng/mL, read-out: TARC inhibition rate
[4] = OVA-sensitized female BALB/c mice, nasal mucosa, within 10 min after administration

Structure (SMILES)	inhibition at 1 µM (CCR4 receptor; [1])	inhibition at 1 µM (CCR4 receptor; [2])	inhibition at 1 µM (CCR4 receptor; [3])	IL-4 (mice rhinitis model; IL-4 level in bronchoalveolar lavage fluid, OVA-sensitized mice)	Nasal scratching (mice rhinitis model; [4])	Sneezing (mice rhinitis model; [4])	Inflammation score (mice rhinitis model; lung tissue inflammation score 0-3, single blind, OVA-sensitized mice)	IgE (mice rhinitis model; serum IgE level, OVA-sensitized mice)
O=C([C@@H]1CSCCN1)N1CCN(c2nc(Cl)cc(NCc3ccc(Cl)cc3Cl)n2)CC1 [Compound 9, (R)-{4-{4-chloro-6-[(2,4-dichlorobenzyl)amino]pyrimidin-2-yl}piperazin-1-yl}(thiomorpholin-3-yl)methanone]	39.5%	22.2%	10.4%	–	–	–	–	–
COCCN(CCOC)c1cc(NCc2ccc(Cl)cc2Cl)nc(N2CCN(C(=O)C(C)C)CC2)n1 [Compound 5, 1-{4-{4-[bis(2-methoxyethyl)amino]-6-(2,4-dichlorobenzylamino)-pyrimidin-2-yl}piperazin-1-yl}-2-methylpropanone]	40.1%	54.5%	39.1%	–	–	–	–	–
CCC(=O)N1CCN(c2nc(NCc3ccc(Cl)cc3Cl)cc(N(C)CC(OC)OC)n2)CC1 [Compound 1, 1-{4-{4-[(2,4-dichlorobenzyl)amino]-6-[(2,2-dimethoxyethyl)methylamino]pyrimidin-2-yl}piperazin-1-yl}propanone]	25.3%	36.3%	46.4%	–	–	–	–	–
O=C(C1CCCCC1)N1CCN(c2nc(NCc3ccc(Cl)cc3Cl)c3cccnc3n2)CC1 [Compound 12, cyclohexyl{4-{4-[(2,4-dichlorobenzyl)amino]pyrido[2,3-d]pyrimidin-2-yl}piperazin-1-yl}methanone]	6.17%	57.2%	61.1%	–	–	–	–	–
COC(CN(C)c1cc(NCc2ccc(Cl)cc2Cl)nc(N2CCN(C(=O)CCSC)CC2)n1)OC [Compound 3, 1-{4-{4-[(2,4-dichlorobenzyl)amino]-6-[(2,2-dimethoxyethyl)methylamino]pyrimidin-2-yl}piperazin-1-yl}-3-methylthiopropanone]	43.9%	35.5%	58.3%	–	–	–	–	–
O=C([C@@H]1CSCCN1)N1CCN(c2nc(NCc3ccc(Cl)cc3Cl)c3cccnc3n2)CC1 [Compound 14, (R)-{4-{4-[(2,4-dichlorobenzyl)amino]pyrido[2,3-d]pyrimidin-2-yl}piperazin-1-yl}(thiomorpholin-3-yl)methanone]	30.5%	62.1%	73.6%	–	–	–	–	–
CCC(=O)N1CCN(c2nc(NCc3ccc(Cl)cc3Cl)c3cccnc3n2)CC1 [Compound 10, 1-{4-{4-[(2,4-dichlorobenzyl)amino]pyrido[2,3-d]pyrimidin-2-yl}piperazin-1-yl}propanone]	38.3%	32.3%	59.8%	–	–	–	–	–
CC(C)C(=O)N1CCN(c2nc(NCc3ccc(Cl)cc3Cl)c3cccnc3n2)CC1 [Compound 11, 1-{4-{4-[(2,4-dichlorobenzyl)amino]pyrido[2,3-d]pyrimidin-2-yl}piperazin-1-yl}-2-methylpropanone]	35.2%	32.3%	61.4%	–	–	–	–	–
CCCC1O[C@@H]2C[C@H]3[C@@H]4CCC5=CC(=O)C=C[C@]5(C)[C@H]4[C@@H](O)C[C@]3(C)[C@]2(C(=O)CO)O1 (some centres unmarked) [Budesonide, budesonide, reference compound]	–	–	–	2.9 ± 1.5 pg/mL	12.0 ± 1.3 times/10 mins	31.7 ± 4.0 times/10 mins	1.5 ± 0.6	2822 ± 51 ng/mL
CCCN1CCN(c2nc(NCc3ccc(Cl)cc3Cl)c3cccnc3n2)CC1 [Compound 13, 4-[(2,4-dichlorobenzyl)amino]-2-(4-propylpiperazin-1-yl)pyrido[2,3-d]pyrimidine]	16.7%	48.8%	35.2%	–	–	–	–	–
COCCN(CCOC)c1cc(NCc2ccc(Cl)cc2Cl)nc(N2CCN(C(=O)C3CCCCC3)CC2)n1 [Compound 7, {4-{4-[bis(2-methoxyethyl)amino]-6-(2,4-dichlorobenzylamino)-pyrimidin-2-yl}piperazin-1-yl}cyclohexylmethanone]	37.9%	30%	51%	–	–	–	–	–
CCC(=O)N1CCN(c2nc(NCc3ccc(Cl)cc3Cl)cc(N(CCOC)CCOC)n2)CC1 [Compound 4, 1-{4-{4-[bis(2-methoxyethyl)amino]-6-(2,4-dichlorobenzylamino)-pyrimidin-2-yl}piperazin-1-yl}propanone]	34.6%	54.9%	45.2%	–	–	–	–	–
COCCN(CCOC)c1cc(NCc2ccc(Cl)cc2Cl)nc(N2CCN(C(=O)CCSC)CC2)n1 [Compound 6, 1-{4-{4-[bis(2-methoxyethyl)amino]-6-(2,4-dichlorobenzylamino)-pyrimidin-2-yl}piperazin-1-yl}-3-methylthiopropanone]	51.2%	19.4%	55.7%	–	–	–	–	–
COC(CN(C)c1cc(NCc2ccc(Cl)cc2Cl)nc(N2CCN(C(=O)C(C)C)CC2)n1)OC [Compound 2, 1-{4-{4-[(2,4-dichlorobenzyl)amino]-6-[(2,2-dimethoxyethyl)methylamino]pyrimidin-2-yl}piperazin-1-yl}-2-methylpropanone]	39%	36.1%	41.7%	–	–	–	–	–
